Results reported in ChEMBL document CHEMBL4359843, “Linear and Rationally Designed Stapled Peptides Abrogate TLR4 Pathway and Relieve Inflammatory Symptoms in Rheumatoid Arthritis Rat Model” (J Med Chem, 2019).
Activity calls are given as the source filed them. No cut-off for these calls is given here. Where a SMILES comes first, the peptide text is derived from it. Bridges are numbered along the chain shown (N, C = ends).

What was measured:
Rattus norvegicus [1] = assay: Antiarthritic activity in Lewis rat model of complete Freund's adjuvant-induced arthritis assessed as reduction in inflammation synovial tissues at 1 nmol/g administered intra-articularly into knee joint after 6 week by Safranin-O staining based histopathological analysis; type: functional, organism-based
Toll-like receptor 4 [2] = biological target: T1, Toll-like receptor 4 (Homo sapiens, UniProt O00206); assay: Antagonist activity at TLR4 in human THP1 cells assessed as reduction in LPS-induced ERK phosphorylation at 50 uM after 15 to 30 mins by Western blot analysis; type: cell-based
Rattus norvegicus [3] = assay: Antiarthritic activity in Lewis rat model of complete Freund's adjuvant-induced arthritis assessed as reduction in inflammation synovial tissues at 1 nmol/g administered intra-articularly into knee joint after 1 week by Safranin-O staining based histopathological analysis; type: functional, organism-based
Rattus norvegicus [4] = assay: Antiarthritic activity in Lewis rat model of complete Freund's adjuvant-induced arthritis assessed as appearance of osteocytes at 1 nmol/g administered intra-articularly into knee joint after 1 week by H and E staining based histopathological analysis; type: functional, organism-based
[5] = biological target: T2, Toll-like receptor 4 (Mus musculus) (UniProt Q9QUK6); assay: Antagonist activity at TLR4 in mouse RAW264.7 cells assessed as reduction in LPS-induced extracellular NO secretion at 5 to 50 uM by spectrophotometric method; type: cell-based
T2 sequence (whole entry): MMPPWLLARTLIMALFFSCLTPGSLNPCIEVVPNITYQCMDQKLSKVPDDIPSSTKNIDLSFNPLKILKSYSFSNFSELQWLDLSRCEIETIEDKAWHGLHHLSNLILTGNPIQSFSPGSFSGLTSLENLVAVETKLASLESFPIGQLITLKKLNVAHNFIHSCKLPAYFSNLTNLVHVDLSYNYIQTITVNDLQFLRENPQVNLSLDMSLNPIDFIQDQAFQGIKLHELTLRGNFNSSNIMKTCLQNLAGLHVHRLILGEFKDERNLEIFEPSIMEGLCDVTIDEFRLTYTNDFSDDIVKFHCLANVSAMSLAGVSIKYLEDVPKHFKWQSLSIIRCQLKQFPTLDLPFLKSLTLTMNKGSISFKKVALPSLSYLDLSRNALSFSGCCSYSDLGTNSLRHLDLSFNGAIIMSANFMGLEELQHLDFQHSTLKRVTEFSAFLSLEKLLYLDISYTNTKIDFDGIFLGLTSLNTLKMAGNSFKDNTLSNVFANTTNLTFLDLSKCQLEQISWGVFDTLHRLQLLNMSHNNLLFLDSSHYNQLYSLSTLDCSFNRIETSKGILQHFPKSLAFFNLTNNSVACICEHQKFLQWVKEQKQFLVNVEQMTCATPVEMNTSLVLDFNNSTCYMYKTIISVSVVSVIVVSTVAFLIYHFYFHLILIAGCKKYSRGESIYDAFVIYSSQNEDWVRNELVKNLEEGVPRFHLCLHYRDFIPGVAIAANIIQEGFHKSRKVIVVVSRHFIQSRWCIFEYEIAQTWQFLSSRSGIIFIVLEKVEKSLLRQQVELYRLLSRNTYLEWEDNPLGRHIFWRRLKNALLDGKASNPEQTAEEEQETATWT

[6] = biological target: T2, Toll-like receptor 4 (Mus musculus); assay: Antagonist activity at TLR4 in mouse RAW264.7 cells assessed as reduction in LPS-induced cytosolic ROS level at 50 uM by DCF-DA staining based FACS analysis; type: cell-based
Rattus norvegicus [7] = assay: Antiarthritic activity in Lewis rat model of complete Freund's adjuvant-induced arthritis assessed as increase in cartilage thickness at 1 nmol/g administered intra-articularly into knee joint after 1 week by H and E staining based histopathological analysis; type: functional, organism-based
Toll-like receptor 4 [8] = biological target: T1, Toll-like receptor 4; assay: Antagonist activity at TLR4 in human PBMC cells assessed as reduction in LPS-induced NFkappaB p65 phosphorylation at 80 uM after 15 to 30 mins by Western blot analysis; type: cell-based
[9] = biological target: Toll-like receptor 1/2 (Homo sapiens) (UniProt O60603+Q15399); assay: Antagonist activity at TLR2/1 in human PBMC cells assessed as reduction in PAM3CSK4-induced TNFalpha secretion at 20 to 80 uM after 24 hrs by ELISA; type: cell-based
[10] = biological target: T2, Toll-like receptor 4 (Mus musculus); assay: Antagonist activity at TLR4 in mouse BMDM cells assessed as reduction in LPS-induced extracellular NO secretion by spectrophotometric method; type: cell-based
[11] = biological target: T2, Toll-like receptor 4 (Mus musculus); assay: Antagonist activity at TLR4 in mouse RAW264.7 cells assessed as reduction in LPS-induced NFkappaB p65 phosphorylation at 80 uM after 15 to 30 mins by Western blot analysis; type: cell-based
TLR2/TLR6 (Mus musculus) = TLR2/TLR6 (Mus musculus) (UniProt Q9QUN7+Q9EPW9); assay: Antagonist activity at TLR2/6 in mouse RAW264.7 cells assessed as reduction in FSL-1-induced TNFalpha secretion at 20 to 80 uM after 24 hrs by ELISA; type: cell-based
[12] = biological target: T2, Toll-like receptor 4 (Mus musculus); assay: Binding affinity to TLR4 in mouse RAW264.7 cells assessed as colocalization of TLR4 in plasma membrane at 40 uM preincubated for 1 hr followed by LPS challenge and measured after 30 mins using FITC-labelled compound by Alexafluor-488/Hoechst 33258 staining based immunofluorescence confocal microscopic method; type: cell-based
TLR2/TLR6 (Homo sapiens) = TLR2/TLR6 (Homo sapiens) (UniProt O60603+Q9Y2C9); assay: Antagonist activity at TLR2/6 in human PBMC cells assessed as reduction in FSL-1-induced TNFalpha secretion at 20 to 80 uM after 24 hrs by ELISA; type: cell-based
[13] = Effect on SEAP activity in HEK-Blue cells harboring human TLR4 at 20 to 80 uM after 1 hr by SEAP assay; type: ADME, cell-based
[14] = biological target: Toll-like receptor 1/2 (Mus musculus) (UniProt Q9QUN7+Q9EPQ1); assay: Antagonist activity at TLR2/1 in mouse RAW264.7 cells assessed as reduction in PAM3CSK4-induced TNFalpha secretion at 20 to 80 uM after 24 hrs by ELISA; type: cell-based
Toll-like receptor 4 [15] = biological target: T1, Toll-like receptor 4; assay: Antagonist activity at human TLR4 expressed in HEK-Blue cells assessed as reduction in LPS-induced SEAP activity pre-incubated for 1 hr followed by LPS stimulation and measured after 24 hrs by SEAP assay; type: cell-based
[16] = biological target: T2, Toll-like receptor 4 (Mus musculus); assay: Antagonist activity at TLR4 in mouse RAW264.7 cells assessed as reduction in LPS-induced JNK phosphorylation at 80 uM after 15 to 30 mins by Western blot analysis; type: cell-based
Toll-like receptor 4 [17] = biological target: T1, Toll-like receptor 4; assay: Antagonist activity at TLR4 in human PBMC cells assessed as reduction in LPS-induced TNFalpha secretion at 20 to 80 uM after 24 hrs by ELISA; type: cell-based
Toll-like receptor 4 [18] = biological target: T1, Toll-like receptor 4; assay: Antagonist activity at TLR4 in human PBMC cells assessed as reduction in LPS-induced p38 phosphorylation at 80 uM after 15 to 30 mins by Western blot analysis; type: cell-based

T1 sequence (O00206 whole entry): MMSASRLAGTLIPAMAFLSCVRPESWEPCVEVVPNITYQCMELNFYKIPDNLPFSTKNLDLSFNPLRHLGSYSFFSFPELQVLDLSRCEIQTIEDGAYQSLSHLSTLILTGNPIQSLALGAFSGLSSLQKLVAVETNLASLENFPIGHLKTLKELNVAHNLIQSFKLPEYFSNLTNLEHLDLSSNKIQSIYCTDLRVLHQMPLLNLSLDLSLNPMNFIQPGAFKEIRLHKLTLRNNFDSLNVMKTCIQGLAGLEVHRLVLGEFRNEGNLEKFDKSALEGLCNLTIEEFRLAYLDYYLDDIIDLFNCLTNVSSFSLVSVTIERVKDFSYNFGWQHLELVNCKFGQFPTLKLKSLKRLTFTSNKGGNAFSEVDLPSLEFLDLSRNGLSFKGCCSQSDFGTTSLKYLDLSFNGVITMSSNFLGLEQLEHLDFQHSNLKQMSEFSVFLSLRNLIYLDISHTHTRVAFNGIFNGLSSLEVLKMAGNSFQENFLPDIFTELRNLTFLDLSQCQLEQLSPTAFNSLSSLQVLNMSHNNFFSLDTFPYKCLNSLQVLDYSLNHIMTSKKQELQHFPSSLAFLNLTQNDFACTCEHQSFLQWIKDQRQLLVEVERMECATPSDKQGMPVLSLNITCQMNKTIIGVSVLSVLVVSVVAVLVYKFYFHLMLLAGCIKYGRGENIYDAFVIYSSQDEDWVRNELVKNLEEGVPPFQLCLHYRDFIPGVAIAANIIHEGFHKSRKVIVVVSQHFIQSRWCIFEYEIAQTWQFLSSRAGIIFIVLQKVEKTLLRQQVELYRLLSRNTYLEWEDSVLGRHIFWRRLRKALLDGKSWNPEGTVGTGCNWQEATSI

Activity (Toll-like receptor 4 [2]) | Activity [5] | Activity [6] | Activity (Toll-like receptor 4 [8]) | Activity [9] | Activity [10] | Activity [11] | Activity (TLR2/TLR6 (Mus musculus)) | Activity [12] | Activity (TLR2/TLR6 (Homo sapiens)) | Activity [14] | Activity (Toll-like receptor 4 [15]) | Activity [16] | Activity (Toll-like receptor 4 [17]) | Activity (Toll-like receptor 4 [18]) | Compound | Activity (Rattus norvegicus [1]) | Activity (Rattus norvegicus [3]) | Activity (Rattus norvegicus [4]) | Activity (Rattus norvegicus [7]) | Activity [13]
Active | Active | Active |  |  |  |  |  |  |  |  |  |  |  |  | CC[C@H](C)[C@@H]1NC(=O)[C@H](Cc2c[nH]c3ccccc23)NC(=O)[C@H](Cc2c[nH]c3ccccc23)NC(=O)[C@@H](NC(=O)[C@H](CO)NC(=O)[C@H](Cc2ccccc2)NC(=O)[C@@H](NC(=O)CNC(=O)[C@@H](N)CC(C)C)C(C)C)CC(=O)NCCCC[C@@H](C(=O)N[C@@H](CC(C)C)C(=O)N[C@H](C(=O)O)C(C)C)NC1=O (H-LGVFSDWWIKLV-OH; lactam 6-10) | Active | Active | Active | Active | 
 |  |  | Active | inactive | Dose-dependent effect | Active | inactive | Active | inactive | inactive | Dose-dependent effect | Active | Active | Active | H-LGVFSSWWIKLV-OH |  |  |  |  | Non-Toxic
